Columns and labels:
[1] = tested on: guinea pig lung parenchymal tissue; assay: Immunologically Mediated Contraction of the Parenchymal Strip (IMCPS); type: cell-based; settings: Cavia porcellus, inhibition of egg albumin-induced contraction of sensitized guinea pig lung strip, 30 min preincubation, chlorpheniramine 10 μM and indomethacin 100 μM present, active if >=15%, read-out: IMCPS % Inhib @ 100 μM
Experimental: (a) Immunogically Mediated Contraction of the Parenchymal Strip (IMCPS)
It is a modification of the procedure published by K. Forsberg and L. Sorenby in Agents and Actions, Vol. 9 pp. 364-368 (1978). In this test, male Hartley strain guinea pigs weighting 400 to 600 g were sensitized by subcutaneous administration of chicken egg albumin (Sigma A-5503, 1.0 mg, 0.5% solution) and bordetella pertussis, 11×10^9 cells (MassachusettsPublic health Biological Labs) 4 to 8 weeks prior to the experiment. The animals were sacrificed, the heart and lungs were removed en bloc and placed in Krebs solution at room temperature. Lung strips (2.5 cm in length) were cut from the perihperal edge of each lobe. Two strips were removed from each animal and were trimmed to be of equal length. Each strip was suspended in an isolated organ bath (10.0 ml) containing oxygenated Krebs buffer solution at 37.5° C. then attached to a force displacement transducer (Grass FTO3) and placed under an initial tension of 1.0 g. The tissues were allowed to equilibrate for 45-60 min, during which the bathing solution was changed several times. At the end of the equilbration period, chlorpheniramine (10.0μM) and indomethacin (100.0μM) were added to eliminate the contribution of histamine and prostaglandins to the contractile response. The two tissues from each animal were matched so that one tissue served as a control and the test drug dissolved in DMSO was added to the bath containing the other tissue at a final concentration of 100μM. After 30 min, egg albumin was added to each bath and the contractile response was measured as milligrams of tension developed as recorded on a Grass Model 7D polygraph.
(§1) The results of the IMCPS and the HGALP tests, employing the administration of various illustrative compounds of the present invention, are shown in Table I. The compounds are of the formula (I) wherein R^1, R^2, R^3, A and Y are as shown, R^4 and R^5 are hydrogen and k is 3.

human granulocyte cells = assay: Human granulocyte Assay for Lipoxygenase Products (HGALP); type: cell-based; settings: inhibition of [3H]-lipoxygenase metabolite release; human granulocytes prelabeled with [3H]-arachidonic acid, 10 μM ionophore A23187, 14 μM indomethacin
Experimental: (b) Human granulocyte Assay for Lipoxygenase Products (HGALP)
This test is a measurement of the inhibition of the synthesis or relase of [3H]-labeled lipoxygenase metabolites released or generated from human granulocyte cells that are prelabeled with [3H]-arachidonic acid. These metabolites include the leukotrienes (e.g., LTB4) which are potent mediators of inflammation and allergy. In this test, a granulocyte enriched fraction is prepared from freshly drawn human blood (50 ml/donor) by standard techniques involving unit gravity separation on ficoll hypaque. […] After washing out unincorporated label, the radiolabeled cells are brought up in incubation buffer (Minimum Essential Medium containing 14 μM indomethacin) to a 10^7 cell/ml concentration. […] Cell suspensions are challeged with 10 μM ionophore A23187 to […], incubations are terminated by the addition of 1 ml ice cold phosphate buffered saline, and cells are pelleted by centrifugation. Supernatants are passed through C18 Sep Pak® cartridges which are then washed twice with 1 ml water. Lipoxygenase metabolites are eluted with two 1 ml volumes of methanol. Eluates are collected in scintillation vials and counted in Aqueous Counting Scintillant (ACS). Radioactivity eluted with methanol is a measure of lipoxygenase metabolites. Values are normalized to vehicle (5 μl DMSO) treated controls and expressed as percent inhibition. Triplicate determinations at each drug concentration are analyzed as log-dose response curves by linear regression analysis from which IC50 values are derived.
as §1

Row | Structure (SMILES) | IC50 (human granulocyte cells) [µM] | inhibition at 100 µM [1] [%]
1 | CCCCCOc1ccc(OCC(O)CC#CCCCC(=O)O)cc1 (stereo not shown) [Example 14b, 8-Hydroxy-9-(4-pentoxyphenoxy)-5-nonynoic acid] | 33 | 0 to 30
2 | CCCCCc1ccc(OCC(O)C/C=C\CCCC(=O)OC)cc1 (stereo not shown) [Example 9, Methyl 8-Hydroxy-9-(4-pentylphenoxy)-5(Z)-nonenoate] | 14 | 0
3 | CCCCCc1ccc(OCC(O)C/C=C\CCCC(=O)O)cc1 (stereo not shown) [Example 10, 8-Hydroxy-9-(4-pentylphenoxy)-5-(Z)-nonenoic acid] | 1.1 to 9.5 | 28.5
4 | O=C(O)CCC/C=C\CC(O)CCc1ccccc1 (stereo not shown) [Example 6, 8-Hydroxy-10-phenyl-5(Z)-decenoic Acid] | 13 | 9
5 | CCCCCc1ccc(OCC(O)CCCCCCC(=O)O)cc1 (stereo not shown) [Example 13, 8-Hydroxy-9-(4-pentylphenoxy)nonanoic Acid] | 2.3 | 6
6 | CCCCCCCCCCCCC(=O)CC#CCCCC(=O)O [Example 4, 8-Oxo-5-eicosynoic Acid] | 4.9 | 22
7 | CCCCCCCCCCCCC(O)C/C=C\CCCC(=O)O (stereo not shown) [Example 2, 8-Hydroxy-5(Z)-eicosenoic Acid] | 7.5 | 19
8 | CCCCCc1ccc(OCC(C/C=C\CCCC(=O)OC)SC(C)=O)cc1 (stereo not shown) [Example 11, Methyl 8-(Acetylthio)-9-(4-pentylphenoxy)-5-(Z)-nonenoate] | 8.5 | 3
9 | CCCCCCCCCCCCC(=O)C/C=C\CCCC(=O)O [Example 3, 8-oxo-5-(Z)-eicosenoic Acid] | 13 | 24
10 | O=C(O)CCCC#CCC(O)CCc1ccccc1 (stereo not shown) [Example 5, 8-Hydroxy-10-phenyl-5-decynoic Acid Hydrate (10:1)] | 14.2 | 9 to 14
11 | CCCCCc1ccc(OCC(O)CC#CCCCC(=O)OC)cc1 (stereo not shown) [Example 8, Methyl 8-Hydroxy-9-(4-pentylphenoxy)-5-nonynoate] | 8 | 14

More lines, main results first:

Row | IC50 (human granulocyte cells) [µM] | Structure (SMILES) | inhibition at 100 µM [1] [%]
12 | 12 | CCCCCCCCCCCCC(O)CC#CCCCC(=O)O (stereo not shown) [Example 1d, 8-Hydroxy-5-eicosynoic acid] | 20 to 43
13 | 12 | CCCCCc1ccc(OCC(O)CC#CCCCC(=O)O)cc1 (stereo not shown) [Example 7b, 8-Hydroxy-9(4-pentylphenoxy)-5-nonynoic acid] | 29
14 | 13 | CCCCCc1ccc(OCC(S)CC#CCCCC(=O)O)cc1 (stereo not shown) [Example 12b, 8-Mercapto-9-(4-pentylphenoxy)-5-nonynoic acid] | 29
